# Experimental data from article PMC12998938, “Neutrophil store-operated Ca^2+ entry: A correctable biomarker of cystic fibrosis lung disease progression” (Journal of cystic fibrosis : official journal of the …, 2025).
# Legend:
# Type in all cases: cell-based, human
# [1] = tested on: Ca2+ influx in CF neutrophils; assay: Fluo-4 Ca2+ influx across the plasma membrane, CF neutrophils
# Protocol: (§1) Isolated neutrophils were incubated with peptide or vehicle control for 3 h. For the final hour of treatment, cells were loaded with Fluo-4 direct (Thermofisher) for 45 min at 37°C and 15 min at room temperature as described.
# (§2) Fig. 3. ELD607 inhibits SOCE in non-CF and CF neutrophils. (A) and (B) Mean changes in fluo-4 fluorescence as a marker of cytoplasmic Ca^2+ levels in non-CF and CF neutrophils respectively before and after stimulation with 1 μM thapsigargin (Tg). Before stimulation, neutrophils were exposed to vehicle (0.1% DMSO in PBS), 10 μM ELD607 or scrambled peptide (control) for 3 h. N = 10 non-CF and 21 CF donors. Stats show ELD607 vs vehicle or scrambled peptide based on color. (C-F) Isolation of ER Ca^2+ release vs Ca^2+ influx across the plasma membrane in non-CF and CF Neutrophils. Neutrophils were stimulated with thapsigargin (1 μM) in the absence of extracellular Ca^2+ to allow the release of Ca^2+ stores to be measured. Extracellular Ca^2+ was then returned so that extracellular Ca^2+ influx could be measured. (C) Mean fold change in Fluo-4 fluorescence during ER store release in non-CF and CF neutrophils. […] (E) Mean fold change in fluo-4 fluorescence during Ca^2+ influx in non-CF and CF neutrophils. […]
# (§3) SOCE has 2 phases: release of Ca^2+ from ER stores and Ca^2+ influx from the extracellular space via Ca^2+ channels such as Orai1. […] Once the stores had emptied, extracellular Ca^2+ was reintroduced and Ca^2+ influx was measured (Fig. 3C–F).
# (§4) Fluo-4 Ca^2+ assays. […] For global Ca^2+ measurements, baseline fluorescent readings were made for 2 min (1 read every 30 s) using a Tecan Infinite M1000 plate reader (ex 494 em 516 nm, bandwidth 5 nm) before thapsigargin (Sigma-Aldrich) was added and the change in emission was recorded for 10 min (1 read every 30 s). […] Baseline fluo-4 fluorescence was read for 2 min before cell were stimulated with thapsigargin (Tocris). Reads continued for ~5 min before 1.2 mM Ca^2+ was added to the extracellular solution and SOCE was measured for ~10 mins. For analysis, all fluo-4 fluorescence reads are normalized to baseline.
# [2] = tested on: SOCE/Orai1 in non-CF peripheral blood neutrophils; assay: Fluo-4 Ca2+ assay, global thapsigargin-stimulated Ca2+ response (SOCE), non-CF neutrophils; conditions: 10 μM peptide, 3 h pre-treatment, 1 μM thapsigargin, N = 10 donors
# Protocol: (§5) Neutrophils were immediately isolated by negative selection from deidentified blood samples using an EasySep human neutrophil isolation kit (Stem Cell Technologies) as described. Cytosolic Ca^2+ was measured using Fluo-4 as described. Protein lysate from isolated blood neutrophils was characterized by liquid chromatography with tandem mass spectrometry (LC-MS/MS) as described. Degranulation products in media were quantified by Luminex assay using a custom Bio-Plex human kit (BioRad) per the manufacturer’s protocol […]. Detailed methods for all experiments and measurements are provided in an online data supplement.
# as §1
# Fluo-4 Ca^2+ assays. Isolated neutrophils were incubated with peptide or vehicle control for 3 h. For the final hour of treatment, cells were loaded with Fluo-4 direct (Thermofisher) for 45 min at 37°C and 15 min at room temperature. For global Ca^2+ measurements, baseline fluorescent readings were made for 2 min (1 read every 30 s) using a Tecan Infinite M1000 plate reader (ex 494 em 516 nm, bandwidth 5 nm) before thapsigargin (Sigma-Aldrich) was added and the change in emission was recorded for 10 min (1 read every 30 s). To isolate phases of store operated Ca^2+ entry, cells underwent 3 rounds of centrifugation and resuspension in Ca^2+-free Ringer’s solution to remove extracellular Ca^2+. Baseline fluo-4 fluorescence was read for 2 min before cell were stimulated with thapsigargin (Tocris). Reads continued for ~5 min before 1.2 mM Ca^2+ was added to the extracellular solution and SOCE was measured for ~10 mins. For analysis, all fluo-4 fluorescence reads are normalized to baseline.
# [3] = tested on: Ca2+ influx in non-CF neutrophils; assay: Fluo-4 Ca2+ influx across the plasma membrane, non-CF neutrophils
# Protocol: as §1, §2, §3, §4
# non-CF neutrophils = assay: Neutrophil degranulation multiplex assay, non-CF neutrophils; conditions: 3 h, 1 μM thapsigargin 30 min, vs vehicle, paired t-test
# Protocol: as §5
# Multiple neutrophil functions, including neutrophil degranulation, are Ca^2+ dependent. Neutrophil degranulation results in an increase in several proteases in the lung, including neutrophil elastase, a key driver of CF lung damage. Accordingly, we investigated the impact of ELD607 on neutrophil degranulation as a marker of Ca^2+-dependent neutrophilic function. We used a multiplex assay to quantify key granule proteins released into media after a 3 h pretreatment with 10 μM ELD607 or vehicle control followed by a 30 min stimulation with 1 μM thapsigargin. Levels of myeloperoxidase (MPO; primary granules), lactoferrin (specific granules) and matrix metalloproteinase-9 (MMP9; tertiary granules) release were similar between non-CF and CF neutrophils (Fig. 4A–C).
# Fig. 4. ELD607 inhibits degranulation in non-CF and CF neutrophils. Neutrophil degranulation (A-C) was assayed by measuring the concentration of representative constituents of (A) primary granules, MPO (non-CF, n = 9; CF, n = 13); (B) secondary granules, lactoferrin (non-CF, n = 12; CF, n = 17) and (C) tertiary granules, MMP-9 (non-CF, n = 9; CF, n = 12). […]
# Multiplex assay. […] Supernatant was collected and analyzed for a panel of neutrophil granule proteins (MPO, lactoferrin, MMP9) using a Bio-Plex human kit (BioRad) per the manufacturer’s protocol. Plates were then analyzed using a Bio-Plex MAGPIX System (BioRad).
sequence,measurement,setting,value
"VHDIVNMLIRG [ELD607, size-optimized SPLUNC1/α6 peptidomimetic]",Ca2+ influx relative to non-CF levels,"[1]; CF neutrophils, absolute terms",restored Ca^2+ from influx CF neutrophils to non-CF levels
same,IC50,"[1]; CF, 3 h pre-treatment, 1 μM thapsigargin, extracellular Ca2+ (1.2 mM) returned, 3 donors in triplicate, vs non-CF p<0.0001",493 nM
same,inhibition of SOCE (global Ca2+ response),[2],significantly inhibited SOCE regardless of genotype
same,attenuation of Ca2+ influx,[3]; non-CF neutrophils (Fig. 3),markedly attenuated Ca^2+ influx
same,IC50,"[3]; non-CF, 3 h pre-treatment, 1 μM thapsigargin, extracellular Ca2+ (1.2 mM) returned, 2 donors in triplicate, vs CF p<0.0001",340 nM
same,MMP9 release (tertiary granules),"non-CF neutrophils; n = 9, 10 μM",significantly reduced
same,MPO release (primary granules),"non-CF neutrophils; n = 9, 10 μM",significantly reduced
same,lactoferrin release (specific/secondary granules),"non-CF neutrophils; n = 12, 10 μM",significantly reduced
